Reference: PMC8815882, “Screening the pandemic response box identified benzimidazole carbamates, Olorofim and ravuconazole as promising drug candidates for the treatment of eumycetoma” (PLoS Neglected Tropical Diseases, 2022)
In brackets after ≈: the same amount, converted by molar mass. Like-named read-outs stand apart in the source and are kept apart here.

Assays:
[1] = test system: M. mycetomatis genome strain MM55; assay: CLSI M38-A2 based in vitro susceptibility screening (XTT or resazurin), growth at fixed concentration; assay type: cell-based, Madurella mycetomatis; details: for Inhibits growth of Madurella mycetomatis at 25 μM: selected if >75% (resazurin) or >80% (XTT) fungal growth inhibited
[2] = test system: M. pseudomycetomatis strain Mex2A; assay: CLSI M38-A2 based in vitro susceptibility screening at 25 μM; assay type: cell-based, Madurella pseudomycetomatis; details: selected if >75% (resazurin) or >80% (XTT) fungal growth inhibited
[3] = test system: M. tropicana strain CBS206.47; assay: as above; assay type: cell-based, Madurella tropicana; details: selected if >75% (resazurin) or >80% (XTT) fungal growth inhibited
[4] = test system: F. senegalensis strain CBS132257; assay: as above; assay type: cell-based, Falciformispora senegalensis; details: selected if >75% (resazurin) or >80% (XTT) fungal growth inhibited
[5] = test system: Me. romeroi strain CBS128765; assay: as above; assay type: cell-based, Medicopsis romeroi; details: selected if >75% (resazurin) or >80% (XTT) fungal growth inhibited
[6] = test system: M. mycetomatis MM55; assay: IC50 determination, 2-fold dilution series 16 to 0.03125 μM; assay type: cell-based, Madurella mycetomatis; details: for IC50 / IC90: Madurella mycetomatis
[7] = test system: ten different M. mycetomatis isolates; assay: MIC / MIC50 determination (XTT) in ten M. mycetomatis isolates; assay type: cell-based, Madurella mycetomatis; details: Madurella mycetomatis
[8] = test system: M. mycetomatis; assay: Drug static or cidal; assay type: cell-based, Madurella mycetomatis
From the text: Supplement pntd.0010159.s001.xlsx, sheet "Pandemic Box Master sheet" | column: Drug static or cidal

[9] = test system: M. mycetomatis isolate MM55; assay: M. mycetomatis grain infection model in G. mellonella larvae, survival; assay type: in vivo, Galleria mellonella; set-up: In vivo efficacy, Larvae survival %: concentration or dose not given beside the values
[10] = Madurella mycetomatis, replicate A, read-out: Percentage survival at 25um, 25 um A
[11] = Madurella mycetomatis, replicate B, read-out: Percentage survival at 25um, 25 uM B
[12] = Madurella mycetomatis, replicate C, read-out: Percentage survival at 25um, 25 uM C
[13] = Madurella mycetomatis, mean, read-out: Percentage survival at 25um, 25 uM mean
[14] = Madurella mycetomatis, 100 uM, mean, read-out: Percentage survival at 100um, 100 uM mean
[15] = Madurella mycetomatis, 100 uM, replicate (first column), read-out: Percentage survival at 100um, 100 uM A
[16] = Madurella mycetomatis, 100 uM, replicate (second column), read-out: Percentage survival at 100um, 100 uM A
[17] = Madurella mycetomatis, 100 uM, replicate (third column), read-out: Percentage survival at 100um, 100 uM A
[18] = MM55, Table 2, M. mycetomatis MM55, read-out: IC50
[19] = MM55, mean, read-out: IC50 mean
[20] = MM55, replicate 1, read-out: IC50 1
[21] = MM55, replicate 1, read-out: IC90 1
[22] = MM55, replicate 2, read-out: IC50 2
[23] = MM55, replicate 2, read-out: IC90 2
[24] = MM55, replicate 3, read-out: IC50 3
[25] = MM55, replicate 3, read-out: IC90 3
[26] = median MIC over ten M. mycetomatis isolates, no asterisk, read-out: MIC50
[27] = over the isolates tested, read-out: MIC50 mean
[28] = isolate CBS247.48, read-out: MIC CBS247.48
[29] = isolate MM55, read-out: MIC MM55
[30] = isolate MM14, read-out: MIC MM14
[31] = isolate MM45, read-out: MIC MM45
[32] = isolate ParijsAl1, read-out: MIC ParijsAl1
[33] = isolate Peru72012, read-out: MIC Peru72012

CCC(C)NCC(O)Cn1c2ccc(Cl)cc2c2cc(Cl)ccc21 (centres unmarked) [MMV1578570]
Inhibits growth of Madurella mycetomatis at 25 μM [1]: inhibit the growth | activity at 25 µM ([1]; Madurella mycetomatis, mean of three replicates, read-out: Percentage survival at 25um, 25 uM mean): 7.02% | activity at 25 µM [1, 10]: 9.54% | activity at 25 µM [1, 11]: -1.08% | activity at 25 µM [1, 12]: 12.6% | activity at 100 µM ([1]; Madurella mycetomatis, 100 uM, mean of three replicates, read-out: Percentage survival at 100um, 100 uM mean): 3.38% | activity at 100 µM ([1]; Madurella mycetomatis, 100 uM, replicate 1, read-out: Percentage survival at 100um, 100 uM A (first replicate column)): 1.05% | Percent fungal survival at 100 µM ([1]; Madurella mycetomatis, 100 uM, replicate 2, read-out: Percentage survival at 100um, 100 uM A (second replicate column)): 3.75% | activity at 100 µM ([1]; Madurella mycetomatis, 100 uM, replicate 3, read-out: Percentage survival at 100um, 100 uM A (third replicate column)): 5.34% | Inhibits growth of Madurella pseudomycetomatis at 25 μM [2]: inhibit the growth | Inhibits growth of Madurella tropicana at 25 μM [3]: inhibit the growth | Inhibits growth of Falciformispora senegalensis at 25 μM [4]: inhibit the growth | Inhibits growth of Medicopsis romeroi at 25 μM [5]: inhibit the growth | Drug static or cidal [6]: Static | IC50 ([6]; MM55, mean of three replicates, read-out: IC50 mean): 17.1 µM | IC50 ([6]; MM55, replicate 1, read-out: IC50 1 um): 21.7 µM | IC90 ([6]; MM55, replicate 1, read-out: IC90 1 um): > 25 µM | IC50 ([6]; MM55, replicate 2, read-out: IC50 2 um): 17.2 µM | IC90 ([6]; MM55, replicate 2, read-out: IC90 2 um): 24.2 µM | IC50 ([6]; MM55, replicate 3, read-out: IC50 3 um): 12.5 µM | IC90 ([6]; MM55, replicate 3, read-out: IC90 3 um): 21.6 µM

OC(Cn1cncn1)(Cn1cncn1)c1ccc(F)cc1F [fluconazole]
Inhibits growth of Madurella mycetomatis at 25 μM [1]: not M. mycetomatis and M. tropicana | Inhibits growth of Madurella pseudomycetomatis at 25 μM [2]: inhibit the growth | Inhibits growth of Madurella tropicana at 25 μM [3]: not M. mycetomatis and M. tropicana

COc1cc(C)c2c(Oc3cccc(C(F)(F)F)c3)c(OC)cc(NC(C)CCCN)c2n1 (centres unmarked) [MMV000043, Tafenoquine, reference compound]
Inhibits growth of Madurella mycetomatis at 25 μM [1]: inhibit the growth | activity at 25 µM [1, 13]: 0.788% | activity at 25 µM [1, 10]: -2.31% | activity at 25 µM [1, 11]: 0.422% | activity at 25 µM [1, 12]: 4.25% | activity at 100 µM [1, 14]: 22.7% | activity at 100 µM [1, 15]: 53.1% | activity at 100 µM [1, 16]: 6.69% | activity at 100 µM [1, 17]: 8.3% | Inhibits growth of Madurella pseudomycetomatis at 25 μM [2]: inhibit the growth | Inhibits growth of Madurella tropicana at 25 μM [3]: inhibit the growth | Inhibits growth of Falciformispora senegalensis at 25 μM [4]: inhibit the growth | Inhibits growth of Medicopsis romeroi at 25 μM [5]: inhibit the growth | Drug static or cidal [6]: Cidal | IC50 [6, 18]: 12.8 µM | IC50 [6, 19]: 12.9 µM | IC90 ([6]; MM55, read-out: IC90 mean): 23.9 µM | IC50 [6, 20]: 11.7 µM | IC90 [6, 21]: 23.5 µM | IC50 [6, 22]: 13.2 µM | IC90 [6, 23]: 23.6 µM | IC50 [6, 24]: 13.8 µM | IC90 [6, 25]: 24.7 µM | MIC50 [7, 26]: 4 µM (≈ 1.85 µg/mL) | MIC50 [7, 27]: 4 µM (≈ 1.85 µg/mL) | MIC [7, 28]: 8 µM (≈ 3.71 µg/mL) | MIC [7, 29]: 4 µM (≈ 1.85 µg/mL) | MIC ([7]; isolate P1, read-out: MIC P1): 16 µM (≈ 7.42 µg/mL) | MIC ([7]; isolate So1, read-out: MIC So1): 16 µM (≈ 7.42 µg/mL) | MIC ([7]; isolate i1, read-out: MIC i1): 4 µM (≈ 1.85 µg/mL) | MIC ([7]; isolate i11, read-out: MIC i11): 4 µM (≈ 1.85 µg/mL)

CCN(CC)CCn1c(=N)n(CC(O)COc2ccc(Cl)cc2Cl)c2ccccc21 (centres unmarked) [MMV000725]
activity at 25 µM ([1]; Madurella mycetomatis, mean of replicates, read-out: Percentage survival at 25um, 25 uM mean): 2.68% | activity at 25 µM [1, 10]: 3.92% | activity at 25 µM [1, 11]: 1.56% | activity at 25 µM [1, 12]: 2.57% | activity at 100 µM ([1]; Madurella mycetomatis, 100 uM, mean of replicates, read-out: Percentage survival at 100um, 100 uM mean): 4.47% | activity at 100 µM ([1]; Madurella mycetomatis, 100 uM, replicate 1, read-out: Percentage survival at 100um, 100 uM A): 4.59% | activity at 100 µM ([1]; Madurella mycetomatis, 100 uM, replicate 2, read-out: Percentage survival at 100um, 100 uM A): 3.57% | activity at 100 µM ([1]; Madurella mycetomatis, 100 uM, replicate 3, read-out: Percentage survival at 100um, 100 uM A): 5.25% | Drug static or cidal [8]: Cidal | IC50 [6, 18]: 8.21 µM | IC50 ([6]; MM55, mean of replicates, read-out: IC50 mean): 8.22 µM | IC90 ([6]; MM55, mean of replicates, read-out: IC90 mean): 18.7 µM | IC50 [6, 20]: 2.8 µM | IC90 [6, 21]: 13.2 µM | IC50 [6, 22]: 9.6 µM | IC90 [6, 23]: 21.1 µM | IC50 [6, 24]: 12.2 µM | IC90 [6, 25]: 21.8 µM | MIC50 [7, 26]: 16 µM (≈ 7.22 µg/mL) | MIC50 ([7]; ten isolates, read-out: MIC50 mean): < 16 µM | MIC [7, 28]: > 16 µM | MIC [7, 30]: > 16 µM | MIC [7, 31]: > 16 µM | MIC [7, 29]: > 16 µM | MIC ([7]; isolate P1, read-out: MIC P1): > 16 µM | MIC [7, 32]: > 16 µM | MIC [7, 33]: > 16 µM | MIC ([7]; isolate So1, read-out: MIC So1): 16 µM (≈ 7.22 µg/mL) | MIC ([7]; isolate i1, read-out: MIC i1): 16 µM (≈ 7.22 µg/mL) | MIC ([7]; isolate i11, read-out: MIC i11): > 16 µM

COC(=O)Nc1nc2ccc(Sc3ccccc3)cc2[nH]1 [MMV003143, Fenbendazole]
Inhibits growth of Madurella mycetomatis at 25 μM [1]: inhibit the growth | activity at 25 µM [1, 13]: 2.38% | activity at 25 µM [1, 10]: -0.759% | activity at 25 µM [1, 11]: 3.53% | activity at 25 µM [1, 12]: 4.38% | activity at 100 µM [1, 14]: 7.16% | activity at 100 µM [1, 15]: 0.376% | activity at 100 µM [1, 16]: 9.19% | activity at 100 µM [1, 17]: 11.9% | Larvae survival rate on day ten ([9]; 20 μM per larvae at 4, 28, 52 h after infection, day ten): 24.4% | Effect on larvae survival Day 4 (words) ([9]; 20 μM per larvae, vs infected control, day four): Increase survival | Effect on larvae survival Day 10 (words) ([9]; 20 μM per larvae, vs infected control, day ten): Increase survival | Effect on larvae survival Day 10 (words) ([9]; 20 μM per larvae, vs infected control, day ten, listed as fenbendazole): able to increase larvae survival | In vivo efficacy, Enhanced survival compared to control? ([9]; in vivo): yes * | In vivo efficacy, Larvae survival % ([9]; in vivo): 24.4% | Inhibits growth of Madurella pseudomycetomatis at 25 μM [2]: inhibit the growth | Inhibits growth of Madurella tropicana at 25 μM [3]: inhibit the growth | Inhibits growth of Falciformispora senegalensis at 25 μM [4]: inhibit the growth | Inhibits growth of Medicopsis romeroi at 25 μM [5]: inhibit the growth | Drug static or cidal [6]: Static | IC50 [6, 18]: 2.66 µM | IC50 ([6]; MM55, Table 3, benzimidazole carbamates, M. mycetomatis, read-out: IC50): 2.66 µM | IC50 [6, 19]: 2.66 µM | IC90 ([6]; MM55, read-out: IC90 mean): 9.09 µM | IC50 [6, 20]: 2.58 µM | IC90 [6, 21]: 17 µM | IC50 [6, 22]: 2.52 µM | IC90 [6, 23]: 4.6 µM | IC50 [6, 24]: 2.88 µM | IC90 [6, 25]: 5.68 µM | MIC50 ([7]; Table 3 and Fig 5, benzimidazole carbamates, M. mycetomatis, read-out: MIC50): 0.5 µM (≈ 0.15 µg/mL) | MIC50 [7, 26]: 2 µM (≈ 0.599 µg/mL) | MIC50 [7, 27]: 0.5 µM (≈ 0.15 µg/mL) | MIC [7, 28]: 0.5 µM (≈ 0.15 µg/mL) | MIC [7, 30]: 0.5 µM (≈ 0.15 µg/mL) | MIC [7, 31]: 0.5 µM (≈ 0.15 µg/mL) | MIC [7, 29]: 0.5 µM (≈ 0.15 µg/mL) | MIC ([7]; isolate P1, read-out: MIC P1): 0.5 µM (≈ 0.15 µg/mL) | MIC [7, 32]: 0.5 µM (≈ 0.15 µg/mL) | MIC [7, 33]: 0.5 µM (≈ 0.15 µg/mL) | MIC ([7]; isolate So1, read-out: MIC So1): 2 µM (≈ 0.599 µg/mL) | MIC ([7]; isolate i1, read-out: MIC i1): 0.25 µM (≈ 0.0748 µg/mL) | MIC ([7]; isolate i11, read-out: MIC i11): 1 µM (≈ 0.299 µg/mL)
